Test results from article PMC13586173, “Synthetic cannabinoid receptor agonists inhibit the cardiac voltage-gated potassium channel hERG” (Acta Pharmacologica Sinica, 2026).

Experiments:
hERG WT = target: T1, hERG WT (Homo sapiens, UniProt Q12809); assay: Manual patch-clamp (MPC) on hERG wild type; assay type: cell-based
T1 construct: expressed in transfected cells
Experimental: Manual patch-clamp (MPC) recordings were performed 24–48 h post-transfection. Patch pipettes were pulled from borosilicate glass and had resistances of 4–7 MΩ when filled with intracellular solution. Coverslips with CHO-K1 cells were placed in a recording chamber and continuously perfused at room temperature (22–24 °C) with extracellular solution using a gravity-fed perfusion system. The intracellular and extracellular solutions used for MPC were identical to those used for APC electrophysiology (see above). Extracellular solution without DMSO was used as a vehicle. Compounds were diluted from the stock solution as a series of dilutions in extracellular solution (i.e., no compensation for different concentrations of DMSO in recording solutions). Compounds were applied to the recorded cells by a pressurized, automated OctaFlow perfusion system (ALA Scientific Instruments).
Each voltage protocol was first run three times in extracellular solution, the 3rd serving as the baseline. Voltage protocols were repeated in the presence of cumulatively rising concentrations of test compound; each concentration was present for 30 s before the recording started. The signals were sampled at 5 kHz after low-pass filtering at 2 kHz.
For Gmax (rel.), N was set to –1. For ΔV50, N was set to 1.

KV7.1/KCNE1 = KV7.1/KCNE1 (Homo sapiens, UniProt P51787); assay: Automated patch-clamp (APC, population patch), CHO cells stably expressing human KV7.1/KCNE1; assay type: cell-based
[1] = Literature concentrations detected in post-mortem cases; details: conversion of cited ng/mL value
[2] = cited from earlier work
hERG S624A = target: T2, hERG S624A (Homo sapiens, UniProt Q12809, S624A); assay: Manual patch-clamp (MPC) on hERG S624A, transiently transfected CHO-K1 cells; assay type: cell-based
T2 construct: expressed in transfected cells; host or cells: CHO-K1 CCL-61 (ATCC), transient, co-transfected with pcDNA3-GFP
Excerpt: (§1) The hERG wild-type and Y652A constructs were kindly provided by Dr. Nicole Schmitt, and the eGFP-pcDNA3 construct was kindly provided by Dr. Antonios Pantazis. The S624A and S649A constructs were generated in-house from the wild-type template using the QuikChange II XL Site-Directed Mutagenesis Kit (Agilent Technologies, Santa Clara, CA, USA), in accordance with the manufacturer’s instructions. Mutagenesis primers were designed using the Agilent QuikChange Primer Design Program. Briefly, PCR amplification was performed according to the recommended cycling conditions, followed by DpnI digestion for 1 h to selectively degrade the parental (methylated) DNA template. The reaction products were then transformed into XL10-Gold ultracompetent cells. All constructs were verified by whole-plasmid sequencing (Eurofins Genomics, Germany) to confirm sequence accuracy.
(§2) Manual patch-clamp (MPC) recordings were performed 24–48 h post-transfection. Patch pipettes were pulled from borosilicate glass and had resistances of 4–7 MΩ when filled with intracellular solution. Coverslips with CHO-K1 cells were placed in a recording chamber and continuously perfused at room temperature (22–24 °C) with extracellular solution using a gravity-fed perfusion system. […] Compounds were applied to the recorded cells by a pressurized, automated OctaFlow perfusion system (ALA Scientific Instruments). […]

hERG Y652A = target: T3, hERG Y652A (Homo sapiens, UniProt Q12809, Y652A); assay: Manual patch-clamp (MPC) on hERG Y652A, transiently transfected CHO-K1 cells; assay type: cell-based
T3 construct: expressed in transfected cells; host or cells: CHO-K1 CCL-61 (ATCC), transient, co-transfected with pcDNA3-GFP
Excerpt: as §1, §2

Sequence of KV7.1/KCNE1 (P51787 whole entry): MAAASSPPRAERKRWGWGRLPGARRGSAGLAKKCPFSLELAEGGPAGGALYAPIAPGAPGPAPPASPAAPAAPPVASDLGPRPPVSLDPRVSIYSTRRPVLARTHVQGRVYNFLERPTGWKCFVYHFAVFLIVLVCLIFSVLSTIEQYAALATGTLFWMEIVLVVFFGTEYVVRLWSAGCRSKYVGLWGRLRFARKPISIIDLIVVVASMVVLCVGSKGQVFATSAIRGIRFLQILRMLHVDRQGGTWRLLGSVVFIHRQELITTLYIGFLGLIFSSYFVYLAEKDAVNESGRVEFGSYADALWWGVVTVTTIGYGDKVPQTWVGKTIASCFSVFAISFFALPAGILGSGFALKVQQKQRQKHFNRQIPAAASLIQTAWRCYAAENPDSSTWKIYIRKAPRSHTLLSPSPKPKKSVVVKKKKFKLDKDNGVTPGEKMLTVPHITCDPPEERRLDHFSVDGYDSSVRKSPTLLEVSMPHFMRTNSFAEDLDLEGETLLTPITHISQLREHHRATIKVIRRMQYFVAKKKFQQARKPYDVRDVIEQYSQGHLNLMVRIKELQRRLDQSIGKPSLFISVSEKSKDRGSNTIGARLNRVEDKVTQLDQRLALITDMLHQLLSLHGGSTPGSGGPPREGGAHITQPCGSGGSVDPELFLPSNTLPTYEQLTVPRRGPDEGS
T2 sequence (Q12809 whole entry S624A): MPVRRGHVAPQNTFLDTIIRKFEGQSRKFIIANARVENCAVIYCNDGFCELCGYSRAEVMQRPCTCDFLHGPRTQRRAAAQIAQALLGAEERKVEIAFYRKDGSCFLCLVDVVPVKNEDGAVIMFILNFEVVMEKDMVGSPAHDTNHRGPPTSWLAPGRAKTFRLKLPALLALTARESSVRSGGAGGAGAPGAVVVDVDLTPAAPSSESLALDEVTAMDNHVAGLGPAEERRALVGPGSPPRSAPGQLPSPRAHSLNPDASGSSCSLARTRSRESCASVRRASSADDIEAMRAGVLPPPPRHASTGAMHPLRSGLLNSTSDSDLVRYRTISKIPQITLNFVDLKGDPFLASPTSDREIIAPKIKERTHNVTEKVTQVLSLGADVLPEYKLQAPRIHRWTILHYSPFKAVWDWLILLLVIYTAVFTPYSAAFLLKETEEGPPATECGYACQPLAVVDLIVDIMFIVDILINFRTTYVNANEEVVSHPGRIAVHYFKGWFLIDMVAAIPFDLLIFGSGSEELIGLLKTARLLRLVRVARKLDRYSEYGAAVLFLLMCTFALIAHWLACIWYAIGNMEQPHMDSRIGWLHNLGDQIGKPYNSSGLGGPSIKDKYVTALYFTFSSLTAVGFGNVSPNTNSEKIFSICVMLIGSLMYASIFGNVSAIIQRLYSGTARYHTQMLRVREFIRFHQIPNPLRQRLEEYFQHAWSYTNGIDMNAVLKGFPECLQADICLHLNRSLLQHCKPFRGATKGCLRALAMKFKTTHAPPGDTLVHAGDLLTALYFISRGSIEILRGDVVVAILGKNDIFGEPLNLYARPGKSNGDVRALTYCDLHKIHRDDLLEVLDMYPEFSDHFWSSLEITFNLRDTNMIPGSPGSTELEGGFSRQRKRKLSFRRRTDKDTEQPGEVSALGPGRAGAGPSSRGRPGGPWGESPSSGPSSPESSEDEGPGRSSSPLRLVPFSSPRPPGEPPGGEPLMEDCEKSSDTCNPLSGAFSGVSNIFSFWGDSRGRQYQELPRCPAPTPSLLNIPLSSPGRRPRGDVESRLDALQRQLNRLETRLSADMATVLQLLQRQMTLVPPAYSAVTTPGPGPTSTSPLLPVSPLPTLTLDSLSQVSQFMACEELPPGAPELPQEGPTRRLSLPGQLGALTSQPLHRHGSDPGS
T3 sequence (Q12809 whole entry Y652A): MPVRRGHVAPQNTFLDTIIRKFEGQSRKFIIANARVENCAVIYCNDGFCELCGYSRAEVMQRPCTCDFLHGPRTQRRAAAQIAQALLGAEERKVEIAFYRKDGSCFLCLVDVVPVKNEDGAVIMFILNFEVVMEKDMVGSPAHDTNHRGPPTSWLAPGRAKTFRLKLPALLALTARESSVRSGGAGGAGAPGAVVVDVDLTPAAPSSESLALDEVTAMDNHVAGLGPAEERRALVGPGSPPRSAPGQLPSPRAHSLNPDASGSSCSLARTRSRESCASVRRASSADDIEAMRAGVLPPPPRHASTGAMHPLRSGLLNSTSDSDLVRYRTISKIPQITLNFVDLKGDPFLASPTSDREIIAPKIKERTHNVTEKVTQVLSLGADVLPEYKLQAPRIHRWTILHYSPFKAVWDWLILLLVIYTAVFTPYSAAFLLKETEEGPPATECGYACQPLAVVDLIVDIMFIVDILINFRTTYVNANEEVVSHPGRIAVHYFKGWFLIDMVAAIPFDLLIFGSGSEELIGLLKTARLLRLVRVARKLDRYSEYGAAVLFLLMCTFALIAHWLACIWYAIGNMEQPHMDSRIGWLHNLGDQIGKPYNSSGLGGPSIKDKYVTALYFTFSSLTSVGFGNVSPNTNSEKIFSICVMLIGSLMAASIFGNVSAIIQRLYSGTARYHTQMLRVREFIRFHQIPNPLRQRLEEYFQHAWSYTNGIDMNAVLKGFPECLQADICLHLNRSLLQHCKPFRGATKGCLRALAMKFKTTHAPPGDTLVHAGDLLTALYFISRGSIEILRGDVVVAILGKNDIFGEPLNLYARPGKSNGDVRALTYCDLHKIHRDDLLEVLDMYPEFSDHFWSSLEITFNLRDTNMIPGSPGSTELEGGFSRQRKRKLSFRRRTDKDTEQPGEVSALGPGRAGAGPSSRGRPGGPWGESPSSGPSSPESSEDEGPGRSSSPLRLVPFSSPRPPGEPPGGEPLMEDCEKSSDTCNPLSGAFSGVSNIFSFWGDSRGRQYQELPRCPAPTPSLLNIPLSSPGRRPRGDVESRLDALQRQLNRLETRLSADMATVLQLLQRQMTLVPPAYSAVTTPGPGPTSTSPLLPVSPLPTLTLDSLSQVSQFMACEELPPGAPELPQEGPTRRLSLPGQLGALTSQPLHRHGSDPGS
T1 sequence (Q12809 whole entry): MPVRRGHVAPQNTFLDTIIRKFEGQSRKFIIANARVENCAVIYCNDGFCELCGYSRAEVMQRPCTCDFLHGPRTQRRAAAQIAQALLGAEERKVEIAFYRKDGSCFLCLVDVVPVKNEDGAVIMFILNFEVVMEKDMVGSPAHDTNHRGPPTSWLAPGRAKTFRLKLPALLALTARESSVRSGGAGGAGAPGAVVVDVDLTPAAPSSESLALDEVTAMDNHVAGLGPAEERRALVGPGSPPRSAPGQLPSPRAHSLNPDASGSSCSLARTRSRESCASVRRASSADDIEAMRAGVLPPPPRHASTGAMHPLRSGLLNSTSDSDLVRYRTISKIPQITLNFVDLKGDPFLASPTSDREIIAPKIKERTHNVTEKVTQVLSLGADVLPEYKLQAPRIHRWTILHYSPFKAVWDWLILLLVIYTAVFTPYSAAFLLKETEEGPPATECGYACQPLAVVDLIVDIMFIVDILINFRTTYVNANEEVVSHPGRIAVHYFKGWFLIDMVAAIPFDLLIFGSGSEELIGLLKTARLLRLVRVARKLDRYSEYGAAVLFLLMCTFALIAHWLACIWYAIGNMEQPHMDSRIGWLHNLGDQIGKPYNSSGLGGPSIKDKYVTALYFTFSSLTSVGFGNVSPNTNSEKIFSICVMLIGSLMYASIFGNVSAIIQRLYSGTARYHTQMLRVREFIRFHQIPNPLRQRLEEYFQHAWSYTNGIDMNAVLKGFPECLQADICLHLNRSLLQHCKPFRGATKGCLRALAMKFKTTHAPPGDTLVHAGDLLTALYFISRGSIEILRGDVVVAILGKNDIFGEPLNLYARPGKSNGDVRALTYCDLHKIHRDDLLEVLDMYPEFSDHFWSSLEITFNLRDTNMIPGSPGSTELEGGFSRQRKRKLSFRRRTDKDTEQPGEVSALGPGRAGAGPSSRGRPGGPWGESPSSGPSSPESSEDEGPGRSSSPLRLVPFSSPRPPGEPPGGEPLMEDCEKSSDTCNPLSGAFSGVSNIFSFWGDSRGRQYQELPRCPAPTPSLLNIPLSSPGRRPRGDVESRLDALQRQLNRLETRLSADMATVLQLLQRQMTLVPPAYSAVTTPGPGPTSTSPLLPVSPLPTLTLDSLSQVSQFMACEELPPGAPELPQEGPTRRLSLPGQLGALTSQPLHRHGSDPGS

COC(=O)C(NC(=O)c1nn(CCCCCF)c2ccccc12)C(C)(C)C (centres unmarked) [5F-MDMB-PINACA, methyl 2-{[1-(5-fluoropentyl)-1H-indazole-3-carbonyl]amino}-3,3-dimethylbutanoate]
IC50 (hERG WT): 4 µM
IC50 (KV7.1/KCNE1): 71.4 µM
Gmax effect on hERG versus KV7.1/KCNE1 (in words) (KV7.1/KCNE1; 10 µM, both channels by APC): effects only on hERG
effect on KV7.1/KCNE1 (in words) (KV7.1/KCNE1; APC): small effect on KV7.1/KCNE1
KV7.1/KCNE1 channel Efficacy (max reduction in Gmax) Gmin (KV7.1/KCNE1; best fit, 1 = no reduction of Gmax, 0 = complete reduction): 0
concentration in post-mortem cases, blood or serum (converted) ([1]; blood or serum samples): ≈ 5.3 nM
concentration in post-mortem case, heart muscle (converted) ([1]; heart muscle): ≈ 4.8 nM
concentration in post-mortem cases, blood or serum ([2]; blood or serum samples): approximately 2 ng/mL
concentration in post-mortem case, heart muscle ([2]; heart muscle): 1.82 ng/mL
IC50 (hERG S624A): 9.6 µM
IC50 (hERG Y652A): 7.8 µM
